Experimental findings from paper PMC9822194, “Chemoselective Synthesis of Mannich Adducts from 1,4-Naphthoquinones and Profile as Autophagic Inducers in Oral Squamous Cell Carcinoma” (Molecules, 2022) are described below.

A word on the IC50: it is the concentration needed to halve the response being measured.

For one data set, the system named is SCC-9 (OSCC cells). In words: MTT cell viability assay (cytotoxicity), SCC9. The format is cell-based, Human. The conditions noted are these: for Selective Index (S.I.): IC50 normal oral fibroblasts/IC50 SCC-9. The method, then:
(§1) Cells and reagents. Human SCC-4, SCC-9 and SCC-25 cells, derived from a human oral tongue SCC were obtained from the ATCC (CRL-1624; CRL-1629 and CRL-1628, respectively) and maintained at 1:1 DMEM/F12 (Dulbecco’s modified Eagle medium and Ham’s F12 medium; Gibco, Thermo Fisher, Waltham, MA, USA) supplemented with 10% (v/v) FBS (fetal bovine serum; Invitrogen, Thermo Fisher, Waltham, MA, USA) and 400 ng/mL hydrocortisone (Sigma-Aldrich Co., St. Louis, MO, USA). Primary normal human gingival fibroblasts were obtained from the ATCC (PCS-201-018), maintained in DMEM supplemented with 10% (v/v) FBS, and used in a maximum of 6 passages. Cells were grown in a humidified environment containing 5% CO2 at 37 °C. […] Carboplatin in water (Fauldcarbo®; Libbs Farmacêutica, São Paulo, SP, Brazil) was used as a standard anticancer compound.
(§2) Cell viability assay (cytotoxicity) and stability assay. To assess cell viability, cells were grown in triplicate in 96-well plates (5 × 10^3 cells/well) until confluence when treated with the different compounds as in Machado et al.. Briefly, DMSO in the same concentrations was used as a 100% cell viability control. After 48 h, cells were incubated with 5 mg/mL MTT reagent (3-(4,5-dimethyl-2-thiazolyl)-2,5-diphenyl-2H-tetrazolium bromide) (Sigma-Aldrich Co., St. Louis, MO, USA) for 3.5 h. Formazan crystals were dissolved in MTT solvent (DMSO/methanol 1:1 v/v) and the absorbance at 560 nm was evaluated using an EPOCH microplate spectrophotometer (BioTek Instruments, Winooski, VT, USA) with background absorbance at 670 nm subtracted. Each of the eighteen compounds was tested at six or seven different concentrations, ranging from 0.3 µM to 200 µM in cancer cell lines (SCC-4, SCC-9 and SCC-25) and 0.4 µM to 300 µM in normal primary human gingival fibroblast.
(§3) Statistical analysis, IC50 calculation. IC50 values for MTT assays were obtained by non-linear regression using the GraphPad Prism 5.0 software (GraphPad, San Diego, CA, USA) from at least three independent experiments. Data are presented as means ± SD. A dose-response (inhibitor) vs response curve using the least squares method was used to determine the IC50, SD and R2 of the data. The selectivity index was calculated as S.I. = IC50 of the compound in normal oral fibroblast cells/IC50 of the same compound for each oral cancer cell line (SCC-4, SCC-9 and SCC-25) and the mean was calculated when indicated.

The next data set concerns SCC-4 cells. In words: MTT cell viability assay, SCC4. The format is cell-based, Human. The conditions noted are these: read-out: SCC4 IC50. On the procedure: as §1, §2, §3
(Tetrazolium assays rely on reduction of a dye to a coloured formazan, in cell work by metabolically active cells.)

Data set [1] concerns SCC9 cells. In words: Clonogenic assay, SCC9. The conditions noted are these: 2 × IC50, 5 days. The format is cell-based, Human. The method, then:
(§4) Clonogenic assay. The SCC9 strain and primary human fibroblasts were grown in duplicates in 24-well plates (5 × 10^4 cells/well) and incubated for 24 h. […] DMSO was used at the same concentrations as a control for 100% of viability. After 5 days of incubation, the culture medium was removed and the cells were fixed with absolute ethanol (500 µL) for 10 min, then stained with crystal 0.05% violet (Sigma Aldrich) in 20% ethanol (500 µL) for 10 min and washed with distilled water. The plates were scanned to quantify the inhibition of the formation of colonies. Then, crystal violet was solubilized in 33% acetic acid and added to the 96-well plate. Finally, the absorbance was read in a spectrophotometer (EPOCH, BioTek Instruments, Winooski, VT, USA) (595 nm).

In data set [2] the test system is normal human gingival fibroblasts. In words: MTT cell viability assay, normal fibroblasts. The conditions noted are these: 48 h, read-out: Primary Gengival Fibroblast IC50. The format is cell-based. On the procedure: as §1, §2, §3
For data set [3], the system named is primary human fibroblasts. In words: Clonogenic assay, primary human fibroblasts. The class given is cell-based. The conditions noted are these: 2 × IC50, 5 days, normal fibroblasts. The method, then: as §4
The subject of data set [4] is SCC9 cells. In words: Stability test (pre-incubation at 37 °C, then MTT on SCC9). The class given is cell-based, Human. The conditions noted are these: 2 × IC50 pre-incubated 0-48 h at 37 °C, then SCC9 48 h. The method, then: After the desired treatment time was reached, the medium containing the compound was replaced with untreated culture medium and the MTT assay was performed at the end of both experiments.

Data set [5] deals with OSCC cell lines (SCC 4, SCC-9 and SCC-25). In words: MTT assay, mean over three OSCC cell lines and average selectivity index. The format is cell-based, Human. The conditions noted are these: for Average S.I.: average selectivity index over SCC-4, SCC-9, SCC-25 vs normal fibroblasts; for IC50: read-out: Oral Tumor Cells Mean IC50. On the procedure: as §2, §3
The test system of a further data set is SCC-25 cells. In words: MTT cell viability assay, SCC25. The format is cell-based, Human. The conditions noted are these: read-out: SCC25 IC50. The method, then: as §1, §2, §3
The test system of data set [6] is SCC9 cells. In words: MTT assay with cell death inhibitors (ZVAD, necrostatin-1, 3-MA). The format is cell-based, Human. The conditions noted are these: SCC9, 3-MA 5000 µM. The method, then:
as §2, with “After 48 h, cells were incubated with 5 mg/mL MTT reagent (3-(4,5-dimethyl-2-thiazolyl)-2,5-diphenyl-2H-tetrazolium bromide) (Sigma-Aldrich Co., St.” left out

Where two headings read alike, the source gives them in different places.

As for `N.N.O=C([O-])C1(C(=O)[O-])CCC1.[Pt+2]` [Carboplatin], the “Selective Index (S.I.)” value in the data set on SCC-9 (OSCC cells) is 0.85. For the same compound, the IC50 with SCC-9 (OSCC cells) (MTT, 48 h, Table 1, read-out: SCC9—Oral Cancer IC50) worked out at 223000 nM; in the data set on SCC-4 cells (MTT, 48 h), 195000 nM; in data set [2] (MTT, Table 1), 193000 nM; in data set [5] (mean of SCC9, SCC25, SCC4), 228000 nM; with SCC-25 cells (MTT, 48 h), 264000 nM. Further, the “Cytotoxicity in clonogenic assay (colony formation)” value in the data set on SCC9 cells [1] is “high cytotoxicity”. Also, the “Cells viable and able to form colonies” value in [3] is “less than 50%”. For the same compound, the “Stability at 37 °C (retained cytotoxicity)” value in the data set on SCC9 cells [4] was “stable even after 48 h”. Moreover, the figures for the “Average S.I.” value in [5] and in data set [5] (listed as carboplatin) were 0.85 and 0.847, respectively.

As for `CC(C)=CC[C@@H](O)C1=CC(=O)c2c(O)ccc(O)c2C1=O` [Shikonin, reference compound], the IC50 came out at 1810 nM in the data set on SCC-9 (OSCC cells) (Homo sapiens, SCC-9, 48 h, read-out: SCC9 IC50); 1800 nM in the data set on SCC-9 (OSCC cells) (Homo sapiens, SCC-9, 48 h, read-out: SCC9—Oral Cancer IC50); 1910 nM in the data set on SCC-4 cells (Homo sapiens, SCC-4, 48 h); 1720 nM in [2] (Homo sapiens, Fibroblast); 1740 nM in data set [5] (Homo sapiens); 1500 nM in the data set on SCC-25 cells (Homo sapiens, SCC-25, 48 h). For the same compound, the “Selective Index (S.I.)” value in the data set with SCC-9 (OSCC cells) stood at 0.95. The “Effect of autophagy inhibitor 3-MA on induced cell death” value in the data set on SCC9 cells [6] is on record as “reduced cell death”. Also, in data set [5], the “Average S.I.” value amounted to 0.98.
